We go through 26 compounds from ChEMBL document CHEMBL1127354, “Nonpeptidic inhibitors of human leukocyte elastase. 3. Design, synthesis, X-ray crystallographic analysis, and structure-activity relationships for a series of orally active 3-amino-6-phenylpyridin-2-one trifluoromethyl ketones” (J Med Chem, 1994).

One series in a line: physchem. Particulars: octanol/water.
A short description of series [1]: Oral bioavailability was measured at concentration of 25 mg/kg oral dose. The format is ADME, organism-based. The settings on record: eutheria, in vivo.
Series [2] is described as follows: Time taken to reach half of the concentration in blood plasma of anesthetized rat at 25 mg/kg oral dose. Also on record: dose 25 mg/kg, route oral. The format is ADME, organism-based.
The nature of series [3]: Time taken to reach maximum drug concentration in plasma of anesthetized rat at 25 mg/kg oral dose. The format is ADME, organism-based. Details: dose 25 mg/kg, route oral.
Series [4] can be described thus: Maximum concentration of unchanged drug in plasma recorded in the period 0-6 hr of postdose in anesthetized rat at 25 mg/kg oral dose. The class given is ADME, organism-based. Also on record: dose 25 mg/kg, route oral.
Series [5] is described as follows: Time taken to reach half of the concentration in blood plasma of hamster at 40 mg/kg oral dose. Also on record: dose 40 mg/kg, route oral. The format is ADME, organism-based. Particulars: cricetinae.
Series [6] in a line: Oral bioavailability was measured at concentration of 5 mg/kg oral dose in dog. The format is ADME, organism-based, Canis lupus familiaris. Particulars: in vivo.
The nature of series [7]: Maximum concentration of unchanged drug in plasma recorded in the period 0-6 hr of postdose to hamster at 40 mg/kg oral dose. The class given is ADME, organism-based. Details: dose 40 mg/kg, route oral. The settings on record: cricetinae.
Series [8] is described as follows: Time taken to reach half of the concentration in blood plasma of dog at 5 mg/kg oral dose. The class given is ADME, organism-based, Canis lupus familiaris. Details: dose 5 mg/kg, route oral.
The nature of series [9]: Time taken to reach maximum drug concentration in plasma of dog at 5 mg/kg oral dose. Also on record: dose 5 mg/kg, route oral. The format is ADME, organism-based, Canis lupus familiaris.
A short description of series [10]: Maximum concentration of unchanged drug in plasma recorded in the period 0-6 hr of postdose in dog at 5 mg/kg oral dose. The class given is ADME, organism-based, Canis lupus familiaris. Also on record: dose 5 mg/kg, route oral.
Series [11] in a line: Oral bioavailability was measured at concentration of 40 mg/kg oral dose. The settings on record: eutheria, in vivo. The class given is ADME, organism-based.
The nature of series [12]: Time taken to reach maximum drug concentration in plasma of hamster at 40 mg/kg oral dose. Also on record: dose 40 mg/kg, route oral. Particulars: cricetinae. The format is ADME, organism-based.
Series [13] in a line: Time taken to reach maximum drug concentration in plasma of anesthetized rat at 60 mg/kg oral dose. Details: dose 60 mg/kg, route oral. The class given is ADME, organism-based.
Series [14] in a line: Oral bioavailability was measured at concentration of 60 mg/kg oral dose. The class given is ADME, organism-based. The settings on record: eutheria, in vivo.
Series [15] is described as follows: Maximum concentration of unchanged drug in plasma recorded in the period 0-6 hr of postdose in anesthetized rat at 60 mg/kg oral dose. Details: dose 60 mg/kg, route oral. The class given is ADME, organism-based.
Series [16] in a line: Partition coefficient (logP). The format is physicochemical. Particulars: octanol/water.
Series [17] in a line: Oral bioavailability was measured at concentration of 40 mg/kg oral dose to hamster. The class given is ADME, organism-based, Cricetulus griseus. The settings on record: chinese hamster, in vivo.
Series [18] in a line: Maximum concentration of unchanged drug in plasma recorded in the period 0-6 hr of postdose in hamster at 40 mg/kg oral dose. Particulars: cricetinae. Also on record: dose 40 mg/kg, route oral. The format is ADME, organism-based.

A word on the logP: it is a log measure of how a compound divides between an organic and an aqueous phase. Low values mean a more hydrophilic compound, high ones a more lipophilic compound. One may read the bioavailability as dose-corrected exposure relative to a reference, in per cent. Higher therefore signals good availability. As usually defined, the half-life is how long it takes for the measured level to halve. High values mean slow decline, low ones rapid decline. The term Tmax denotes the time from dosing to the highest level. What is called Cmax is the peak of the concentration-time curve.

Each structure is given as a SMILES string.

In “physchem”, `CC(C)C(NC(=O)Cn1c(-c2ccccc2)ccc(NS(N)(=O)=O)c1=O)C(=O)C(F)(F)F` (centres undefined) came in with a log partition coefficient (logP) of 1.17.

In “physchem”, `CC(C)C(NC(=O)Cn1c(-c2ccccc2)ccc(NS(C)(=O)=O)c1=O)C(=O)C(F)(F)F` (centres undefined) came in with a logP of 1.77.

On to `CC(C)C(NC(=O)Cn1c(-c2ccccc2)ccc(NC(=O)NCc2cc[n+]([O-])cc2)c1=O)C(=O)C(F)(F)F` (centres undefined), for which the logP in “physchem” amounted to 1.13.

In the series “physchem”, `CC(C)C(NC(=O)Cn1c(-c2ccccc2)ccc(NC(=O)NCc2ccccn2)c1=O)C(=O)C(F)(F)F` (centres undefined) gave a logP of 2.15.

The compound `Cc1cc(COC(=O)Nc2ccc(-c3ccccc3)n(CC(=O)NC(C(=O)C(F)(F)F)C(C)C)c2=O)cc(C)n1` (centres undefined) displayed a logP in the series “physchem” of 2.38.

Turning to `CC(C)C(NC(=O)Cn1c(-c2ccccc2)ccc(NC(=O)C(F)(F)F)c1=O)C(=O)C(F)(F)F` (centres undefined), in “physchem”, the lipophilicity (logP) is 3.86.

As to `CC(C)C(NC(=O)Cn1c(-c2ccccc2)ccc(NC(=O)Cc2ccc(C(=O)O)cc2)c1=O)C(=O)C(F)(F)F` (centres undefined), the log partition coefficient (logP) in “physchem” came out at 0.35.

As for `CC(C)C(NC(=O)Cn1c(-c2ccccc2)ccc(NC(=O)OCc2ccccn2)c1=O)C(=O)C(F)(F)F` (centres undefined), the logP in the series “physchem” stood at 1.91.

The compound `CC(C)C(NC(=O)Cn1c(-c2ccccc2)ccc(NC(=O)OCc2ccccc2)c1=O)C(=O)C(F)(F)F` (centres undefined) displayed a bioavailability in series [1] of 59%. The same compound showed a half-life in [2] of 180 min. In addition, in series [3], the time of peak concentration (Tmax) worked out at 1.4 h. In addition, in series [4], the Cmax worked out at 1890 ng/mL.

In “physchem”, `CC(C)C(NC(=O)Cn1c(-c2ccccc2)ccc(N)c1=O)C(=O)C(F)(F)F` (centres undefined) registered a logP of 1.74.

In “physchem”, `CC(C)C(NC(=O)Cn1c(-c2ccccc2)ccc(NC(=O)CN2CCOCC2)c1=O)C(=O)C(F)(F)F` (centres undefined) came in with a logP of 2.

Regarding `CC(C)C(NC(=O)Cn1c(-c2ccccc2)ccc(NC(=O)OCc2ccncc2)c1=O)C(=O)C(F)(F)F` (centres undefined), the half-life was 78 min in [5] and 48 min in [8]. The bioavailability in series [6] was approximately 100%; in series [11], 45%. For the same compound, the log partition coefficient (logP) in “physchem” was determined as 2.41. Also, the figures for the Cmax in series [7] and in series [10] were 2770 ng/mL and 3150 ng/mL, respectively. In addition, the Tmax in series [9] is 1 h; in series [12], 15 min.

As for `CC(C)C(NC(=O)Cn1c(-c2ccccc2)ccc(NC(=O)NCc2ccncc2)c1=O)C(=O)C(F)(F)F` (centres undefined), in series [13], the Tmax was 3 h. Further, the bioavailability in series [14] worked out at 2%. In the series “physchem”, this compound displayed a logP of 2.16. Moreover, in series [15], the Cmax is 75 ng/mL.

In turn, `CC(C)C(NC(=O)Cn1c(-c2ccccc2)ccc(NC(=O)OCc2ccc(C(=O)O)cc2)c1=O)C(=O)C(F)(F)F` (centres undefined) registered a logP in “physchem” of 0.84.

In turn, `CC(C)C(NC(=O)Cn1c(-c2ccccc2)ccc(NS(=O)(=O)NCc2ccccc2)c1=O)C(=O)C(F)(F)F` (centres undefined) came in with a logP in the series “physchem” of 2.57.

Turning to `COc1ccc(S(=O)(=O)Nc2ccc(-c3ccccc3)n(CC(=O)NC(C(=O)C(F)(F)F)C(C)C)c2=O)cc1` (centres undefined), the lipophilicity (logP) in “physchem” turned out to be 2.5.

`CC(C)C(NC(=O)Cn1c(-c2ccccc2)ccc(NS(=O)(=O)c2ccccc2)c1=O)C(=O)C(F)(F)F` (centres undefined): the logP in the series “physchem” was 2.53. This logP and that of the compound before are within 0.2 log units of each other.

For `CC(=O)Nc1ccc(S(=O)(=O)Nc2ccc(-c3ccccc3)n(CC(=O)NC(C(=O)C(F)(F)F)C(C)C)c2=O)cc1` (centres undefined), in [16], the logP entry is reported as “Not detected”.

`CC(C)C(NC(=O)Cn1c(-c2ccccc2)ccc(NC(=O)Cc2ccccc2C(=O)O)c1=O)C(=O)C(F)(F)F` (centres undefined) displayed a logP in the series “physchem” of 1.14.

In “physchem”, `CC(C)C(NC(=O)Cn1c(-c2ccccc2)ccc(NC(=O)NCc2cccnc2)c1=O)C(=O)C(F)(F)F` (centres undefined) displayed a logP of 2.84.

The compound `CC(C)C(NC(=O)Cn1c(-c2ccccc2)ccc(NC(=O)NCc2ccc[n+]([O-])c2)c1=O)C(=O)C(F)(F)F` (centres undefined) displayed a lipophilicity (logP) in the series “physchem” of 1.48.

`CCNc1ccc(-c2ccccc2)n(CC(=O)NC(C(=O)C(F)(F)F)C(C)C)c1=O` (centres undefined) had a logP in “physchem” of 2.37.

Consider `CC(C)C(NC(=O)Cn1c(-c2ccccc2)ccc(NC(=O)OCc2cccc(C(=O)O)c2)c1=O)C(=O)C(F)(F)F` (centres undefined), for which, in series [16], the logP result is “Not detected”.

Compound `CC(=O)Nc1ccc(-c2ccccc2)n(CC(=O)NC(C(=O)C(F)(F)F)C(C)C)c1=O` (centres undefined) showed a half-life in [5] of 114 min. In “physchem”, this compound gave a log partition coefficient (logP) of 1.78. In addition, the bioavailability in [17] came to 35%. This compound yielded a Cmax in series [18] of 2780 ng/mL. Also, the Tmax in series [12] turned out to be 15 min.

Take `CC(C)C(NC(=O)Cn1c(-c2ccccc2)ccc(NS(=O)(=O)Cc2ccccc2)c1=O)C(=O)C(F)(F)F` (centres undefined): the logP result in [16] is given as “Not detected”.

In turn, `CC(C)C(NC(=O)Cn1c(-c2ccccc2)ccc(NC=O)c1=O)C(=O)C(F)(F)F` (centres undefined) came in with a log partition coefficient (logP) in “physchem” of 1.84.
